Measured values from patent US20220340875A1, “METHODS OF CULTURING AND/OR EXPANDING STEM CELLS AND/OR LINEAGE COMMITTED PROGENITOR CELLS USING AMIDO COMPOUNDS” (IDEAYA BIOSCIENCES, INC., priority 2018, published 2022).

These compounds were tested against T1, hAhR (Homo sapiens, UniProt P35869) (assay: AhR DRE-luciferase reporter transcriptional assay, antagonist mode (TCDD-induced)). Settings: HEPG2 DRE-Luc cells, 3 nM TCDD, 24 hour incubation, relative IC50.
T1 construct: Stably integrated DRE-luciferase cell lines were generated by transducing the both cell lines with Cignal XRE luciferase reporter (Qiagen) lentiviral particles; endogenous in cells
T1 sequence (P35869 11-848): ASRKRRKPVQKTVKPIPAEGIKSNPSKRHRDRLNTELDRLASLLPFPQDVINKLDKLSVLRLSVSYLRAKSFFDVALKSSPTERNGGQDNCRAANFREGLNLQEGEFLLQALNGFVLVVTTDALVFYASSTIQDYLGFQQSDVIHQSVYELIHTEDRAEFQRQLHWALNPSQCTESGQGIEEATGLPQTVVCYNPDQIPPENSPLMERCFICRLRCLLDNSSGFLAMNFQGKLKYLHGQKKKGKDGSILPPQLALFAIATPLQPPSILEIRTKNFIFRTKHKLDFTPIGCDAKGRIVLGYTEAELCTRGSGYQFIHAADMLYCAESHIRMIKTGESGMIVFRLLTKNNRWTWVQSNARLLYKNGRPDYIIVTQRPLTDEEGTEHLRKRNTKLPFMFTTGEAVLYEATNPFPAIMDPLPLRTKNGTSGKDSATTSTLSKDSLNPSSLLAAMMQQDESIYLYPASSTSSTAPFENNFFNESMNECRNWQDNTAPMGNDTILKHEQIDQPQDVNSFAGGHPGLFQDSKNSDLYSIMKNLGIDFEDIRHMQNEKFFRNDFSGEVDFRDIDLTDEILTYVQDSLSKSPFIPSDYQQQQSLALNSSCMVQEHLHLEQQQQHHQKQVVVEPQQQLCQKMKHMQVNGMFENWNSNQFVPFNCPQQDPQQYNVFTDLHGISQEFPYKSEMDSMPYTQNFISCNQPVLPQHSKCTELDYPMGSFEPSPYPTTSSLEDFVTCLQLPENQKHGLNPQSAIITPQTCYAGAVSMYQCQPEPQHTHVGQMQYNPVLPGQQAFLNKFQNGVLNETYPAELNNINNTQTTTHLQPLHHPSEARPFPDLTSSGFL
Type: cell-based
Procedure, shortened: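 HepG2 cells carrying a stably integrated DRE-luciferase reporter, in OptiMEM with 0.5% FBS; semi-log compound doses added with 3 nM TCDD, 24 h incubation, firefly luciferase read-out. Percent maximal activity normalised between vehicle ± TCDD; relative IC50 taken as half-reduction between curve plateaus.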
For `Cc1cc(-c2ccc3cc(F)cc(C)c3n2)ccc1NC(=O)c1ccnn1C` [Example 052, N-(4-(6-fluoro-8-methylquinolin-2-yl)-2-methylphenyl)-1-methyl-1H-pyrazole-5-carboxamide], the IC50 was less than 200 nM.
In the case of `Cc1cc(-c2ccc3cc(C(F)(F)F)ccc3n2)cc(F)c1N(C)C(=O)c1ccnn1C` [Example 007, N-(2-fluoro-6-methyl-4-(6-(trifluoromethyl)quinolin-2-yl)phenyl)-N,1-dimethyl-1H-pyrazole-5-carboxamide], the IC50 is reported as less than 200 nM.
In the case of `COC(=O)Nc1ccc(-c2ccc3cc(F)ccc3n2)cc1C` [Example 024, methyl (4-(6-fluoroquinolin-2-yl)-2-methylphenyl)carbamate], the IC50 is reported as 200 to 500 nM.
`Cc1cc(-c2ncc3nc(C(F)(F)F)cc(C)c3n2)ccc1N(C)C(=O)c1cc(C(=O)O)nn1CC#N` [Example 197, 1-(cyanomethyl)-5-(methyl(2-methyl-4-(8-methyl-6-(trifluoromethyl)-pyrido[3,2-d]pyrimidin-2-yl)phenyl)carbamoyl)-1H-pyrazole-3-carboxylic acid] was tested, and the IC50 was 1000 to 10000 nM.
In the case of `Cc1cc(-c2ncc3cc(C(F)(F)F)ccc3n2)ccc1N(C)C(=O)OC(C)(C)C` [Example 009, tert-butyl methyl(2-methyl-4-(6-(trifluoromethyl)quinazolin-2-yl)phenyl)carbamate], the IC50 is reported as 500 to 1000 nM.
With `Cc1cc(-c2ccc3cc(C(F)(F)F)ccc3n2)ccc1N(C)C(=O)C(F)(F)F` [Example 081, 2,2,2-Trifluoro-N-methyl-N-(2-methyl-4-(6-(trifluoromethyl)quinolin-2-yl)phenyl)acetamide] the IC50 was 1000 to 10000 nM.
Compound `Cc1cc(-c2ncc3nc(C(F)(F)F)cc(C)c3n2)ccc1N(C)C(=O)c1ccnn1CC(N)=O` [Example 171, 1-(2-amino-2-oxoethyl)-N-methyl-N-(2-methyl-4-(8-methyl-6-(trifluoromethyl)pyrido[3,2-d]pyrimidin-2-yl)phenyl)-1H-pyrazole-5-carboxamide] has an IC50 of 200 to 500 nM.
`CNC(=O)c1cc(C(=O)Nc2ccc(-c3ncc4nc(C(F)(F)F)cc(C)c4n3)cc2C)ccn1` [Example 167, N2-methyl-N4-(2-methyl-4-(8-methyl-6-(trifluoromethyl)pyrido[3,2-d]pyrimidin-2-yl)phenyl)pyridine-2,4-dicarboxamide] gave an IC50 of less than 200 nM.
In the case of `Cc1cc(-c2ncc3cc(C(F)(F)F)ccc3n2)ccc1NC(=O)c1nn(C)cc1C` [Example 216, 1,4-dimethyl-N-(2-methyl-4-(6-(trifluoromethyl)quinazolin-2-yl)phenyl)-1H-pyrazole-3-carboxamide], the IC50 is reported as less than 200 nM.
`Cc1ccc2nc(-c3ccc(NC(=O)c4ccnn4C)c(C)c3)ccc2c1` [Example 079, 1-methyl-N-(2-methyl-4-(6-methylquinolin-2-yl)phenyl)-1H-pyrazole-5-carboxamide] was tested, and the IC50 was 500 to 1000 nM.
Work on `Cc1cc(-c2ccc3cc(F)cc(Cl)c3n2)ccc1NC(=O)c1ccnn1C` [Example 049, N-(4-(8-chloro-6-fluoroquinolin-2-yl)-2-methylphenyl)-1-methyl-1H-pyrazole-5-carboxamide] yielded an IC50 of 200 to 500 nM.
`Cc1cc(-c2ccc3cc(F)ccc3n2)ccc1NC(=O)c1nccn1C` [Example 033, N-(4-(6-fluoroquinolin-2-yl)-2-methylphenyl)-1-methyl-1H-imidazole-2-carboxamide] showed an IC50 of 200 to 500 nM.
Work on `Cc1cc(C(=O)N(C)c2ccc(-c3ncc4nc(OC(F)(F)F)cc(C)c4n3)cc2C)ccn1` [Example 161, N,2-dimethyl-N-(2-methyl-4-(8-methyl-6-(trifluoromethoxy)pyrido[3,2-d]pyrimidin-2-yl)phenyl)isonicotinamide] yielded an IC50 of 200 to 500 nM.
With `Cc1cc(-c2ccc3nc(C(F)(F)F)ccc3n2)ccc1NC(=O)c1ccnn1C` [Example 102, 1-methyl-N-(2-methyl-4-(6-(trifluoromethyl)-1,5-naphthyridin-2-yl)phenyl)-1H-pyrazole-5-carboxamide] the IC50 was less than 200 nM.
Work on `Cc1cc(NC(=O)c2ccnn2C)ccc1-c1ccc2cc(F)ccc2n1` [Example 050, N-(4-(6-fluoroquinolin-2-yl)-3-methylphenyl)-1-methyl-1H-pyrazole-5-carboxamide] yielded an IC50 of 500 to 1000 nM.
For `Cc1cc(-c2ccc3cc(N)ccc3n2)ccc1NC(=O)c1ccnn1C` [Example 075, N-(4-(6-aminoquinolin-2-yl)-2-methylphenyl)-1-methyl-1H-pyrazole-5-carboxamide], the IC50 was 1000 to 10000 nM.
In the case of `Cc1cc(-c2ccc3cc(C(F)(F)F)ccc3n2)ccc1NC(=O)c1ccn[nH]1` [Example 204, N-[2-methyl-4-[6-(trifluoromethyl)quinolin-2-yl]phenyl]-1H-pyrazole-5-carboxamide], the IC50 is reported as 1000 to 10000 nM.
Compound `Cc1cc(-c2ccc3cncc(C)c3c2)ccc1NC(=O)c1ccnn1C` [Example 061, 1-methyl-N-(2-methyl-4-(4-methylisoquinolin-6-yl)phenyl)-1H-pyrazole-5-carboxamide] has an IC50 of 500 to 1000 nM.
`Cc1cc(-c2ccc3c(ccn3CC(F)(F)F)c2)ccc1NC(=O)c1ccnn1C` [Example 088, 1-methyl-N-(2-methyl-4-(1-(2,2,2-trifluoroethyl)-1H-indol-5-yl)phenyl)-1H-pyrazole-5-carboxamide] showed an IC50 of 1000 to 10000 nM.
For `Cc1c(-c2ncc3cc(C(F)(F)F)ccc3n2)ccc(N(C)C(=O)c2ccnn2C)c1F` [Example 114, N-(2-fluoro-3-methyl-4-(6-(trifluoromethyl)quinazolin-2-yl)phenyl)-N,1-dimethyl-1H-pyrazole-5-carboxamide], the IC50 was less than 200 nM.
`Cc1cc(-c2ncc3cc(C(F)(F)F)ccc3n2)ccc1N(C)C(=O)c1ccnn1CCO` [Example 211, 1-(2-hydroxyethyl)-N-methyl-N-(2-methyl-4-(6-(trifluoromethyl)quinazolin-2-yl)phenyl)-1H-pyrazole-5-carboxamide] gave an IC50 of less than 200 nM.
In the case of `Cc1cc(-c2cc(C)c3ccccc3n2)ccc1NC(=O)c1ccnn1C` [Example 016, 1-Methyl-N-(2-methyl-4-(4-methylquinolin-2-yl)phenyl)-1H-pyrazole-5-carboxamide], the IC50 is reported as 500 to 1000 nM.
`Cc1nc(-c2ccc3cc(F)ccc3n2)ccc1NC(=O)c1ccnn1C` [Example 045, N-(6-(6-fluoroquinolin-2-yl)-2-methylpyridin-3-yl)-1-methyl-1H-pyrazole-5-carboxamide] was tested, and the IC50 was 1000 to 10000 nM.
Work on `Cc1cc(-c2ccc3cc(C(F)(F)F)ccc3n2)ccc1N(C)C(=O)c1ccn[nH]1` [Example 205, N-methyl-N-[2-methyl-4-[6-(trifluoromethyl)quinolin-2-yl]phenyl]-1H-pyrazole-5-carboxamide] yielded an IC50 of 500 to 1000 nM.
Compound `Cc1nc(NC(=O)c2ccnn2C)ccc1-c1ccc2cc(F)ccc2n1` [Example 044, N-(5-(6-fluoroquinolin-2-yl)-6-methylpyridin-2-yl)-1-methyl-1H-pyrazole-5-carboxamide] has an IC50 of 1000 to 10000 nM.
Compound `Cc1cc(C(F)(F)F)nc2cnc(-c3ccc(N(C)C(=O)c4ccnn4C)c(F)c3)nc12` [Example 162, N-(2-fluoro-4-(8-methyl-6-(trifluoromethyl)pyrido[3,2-d]pyrimidin-2-yl)-phenyl)-N,1-dimethyl-1H-pyrazole-5-carboxamide] has an IC50 of less than 200 nM.
`Cc1cc(-c2ccc3c(C(F)(F)F)cccc3n2)ccc1NC(=O)c1ccnn1C` [Example 057, 1-methyl-N-(2-methyl-4-(5-(trifluoromethyl)quinolin-2-yl)phenyl)-1H-pyrazole-5-carboxamide] showed an IC50 of 200 to 500 nM.
